Measured values: patent US12453709B2, “Compositions and methods for treating autism” (priority 2013, dated 2025)
Marks after values point to notes of the source that are not given here.

Tested on: male patients diagnosed with autism
Test: Study HT 02-121: adverse events
Format: in vivo, human
Experimental: The purpose of this clinical study (referred to herein as “Study HT 02-121”; i.e., Example 6) was to determine whether L1-79 was a well-tolerated and clinically useful agent for the treatment of ASD, and to assess the PK and pharmacodynamics (PD) of four weeks of TID dosing with L1-79. […] The first cohort of 20 patients was comprised of three groups of patients: The first group of five patients received open-label L1-79 100 mg TID and underwent PK and EKG assessments. […] The PK and safety data from the open-label L1-79 100 mg TID group was submitted to FDA for review and acceptance before the second cohort was enrolled. The second cohort was procedurally identical to the first. The second cohort of 20 patients was comprised of the same three groups of patients but a dose of 200 mg TID was used instead of 100 mg TID. The key inclusion criteria were as follows: […] Safety was the primary endpoint of the study. The following safety endpoints were assessed: ECGs, physical exams, laboratory evaluations (hematology, chemistry and urinalysis), vital signs, including orthostatic blood pressure, adverse events (AEs) and concomitant medications. The incidence of AEs by primary system organ class and preferred term is presented in Table 7, and a listing of the AEs reported during the study is presented in Table 8. All AEs were mild to moderate in intensity and self-limited.

[1] = patient 01-011, OL 200 mg TID, treatment emergent Y, resolved
[2] = patient 02-001, OL 100 mg TID, treatment emergent Y, resolved
[3] = patient 02-018, DB 200 mg TID, treatment emergent Y, resolved

CC(N)(Cc1ccc(O)cc1)C(=O)O (racemic) [L1-79, α-methyl-DL-tyrosine]
1(20.0) n(%): Incidence of AEs: Cough (OL 200 mg TID, N = 6) | Incidence of AEs: Fatigue (OL 200 mg TID, N = 6) | Incidence of AEs: Immune system disorders (OL 200 mg TID, N = 6) | Incidence of AEs: Pyrexia (OL 200 mg TID, N = 6) | Incidence of AEs: Respiratory, thoracic & mediastinal disorders (OL 200 mg TID, N = 6) | Incidence of AEs: Seasonal allergy (OL 200 mg TID, N = 6)
probably related: AE Relationship: intentional self-injury (violent episodes of self injurious behavior) (patient 02-002, OL 100 mg TID) | AE Relationship: irritability (patient 02-002, OL 100 mg TID)
6 [e]: Number of AE events: All primary SOC (OL 100 mg TID, N = 5) | Number of AE events: Psychiatric disorders (OL 100 mg TID, N = 5)
mild: AE Severity: crystal urine present (urine cystine crystal present) (patient 01-014, DB 200 mg TID, reported at 4-week follow-up visit, resolved) | AE Severity: fatigue (tiredness) (patient 01-016, OL 200 mg TID, treatment emergent Y, resolved) | AE Severity: crystal urine present (urine cystine crystal present) (patient 01-018, DB 200 mg TID, reported at 4-week follow-up visit, resolved) | AE Severity: anxiety (anxious) [2] | AE Severity: confusional state (mental confusion) [2] | AE Severity: intentional self-injury (self injurious behavior) [2] | AE Severity: irritability [2] | AE Severity: irritability (patient 02-002, OL 100 mg TID, treatment emergent Y, outcome unknown) | AE Severity: intentional self-injury (violent episodes of self injurious behavior) (patient 02-002, OL 100 mg TID, treatment emergent Y, resolving) | AE Severity: synoope (synoope) (patient 02-009, DB 100 mg TID, treatment emergent Y, resolved) | AE Severity: anxiety (anxious mood) [3] | AE Severity: otitis externa [3] | AE Severity: ear infection (patient 02-024, DB 200 mg TID, AE reported pre-treatment, resolving) | AE Severity: diarrhoea (diarrhea) (patient 02-024, DB 200 mg TID, treatment emergent Y, resolved)
4 [e]: Number of AE events: All primary SOC (OL 200 mg TID, N = 6)
2 [e]: Number of AE events: International self-injury (OL 100 mg TID, N = 5) | Number of AE events: Irritability (OL 100 mg TID, N = 5) | Number of AE events: General disorders & administration site conditions (OL 200 mg TID, N = 6)
2(40.0) n(%): Incidence of AEs: Psychiatric disorders (OL 100 mg TID, N = 5) | Incidence of AEs: All primary SOC (OL 200 mg TID, N = 6) | Incidence of AEs: General disorders & administration site conditions (OL 200 mg TID, N = 6)
1 [e]: Number of AE events: Anxiety (OL 100 mg TID, N = 5) | Number of AE events: Confusional state (OL 100 mg TID, N = 5) | Number of AE events: Cough (OL 200 mg TID, N = 6) | Number of AE events: Fatigue (OL 200 mg TID, N = 6) | Number of AE events: Immune system disorders (OL 200 mg TID, N = 6) | Number of AE events: Pyrexia (OL 200 mg TID, N = 6) | Number of AE events: Respiratory, thoracic & mediastinal disorders (OL 200 mg TID, N = 6) | Number of AE events: Seasonal allergy (OL 200 mg TID, N = 6)
possibly related: AE Relationship: fatigue (tiredness) (patient 01-016, OL 200 mg TID) | AE Relationship: anxiety (anxious) (patient 02-001, OL 100 mg TID) | AE Relationship: confusional state (mental confusion) (patient 02-001, OL 100 mg TID) | AE Relationship: intentional self-injury (self injurious behavior) (patient 02-001, OL 100 mg TID) | AE Relationship: irritability (patient 02-001, OL 100 mg TID) | AE Relationship: anxiety (anxious mood) (patient 02-018, DB 200 mg TID) | AE Relationship: blood thyroid stimulating hormone increased (elevated TSH) (patient 02-018, DB 200 mg TID) | AE Relationship: diarrhoea (diarrhea) (patient 02-018, DB 200 mg TID) | AE Relationship: generalized tonic-clonic seizer (grand mal seizure) (patient 02-023, DB 200 mg TID)
0[0] n(%): Incidence of AEs: Nasopharyngitis (OL 100 mg TID, N = 5) | Incidence of AEs: Nervous system disorders (OL 100 mg TID, N = 5) | Incidence of AEs: Otitis externa (OL 100 mg TID, N = 5) | Incidence of AEs: Pyrexia (OL 100 mg TID, N = 5) | Incidence of AEs: Renal and urinary disorders (OL 100 mg TID, N = 5) | Incidence of AEs: Respiratory, thoracic & mediastinal disorders (OL 100 mg TID, N = 5) | Incidence of AEs: Seasonal allergy (OL 100 mg TID, N = 5) | Incidence of AEs: Syncope (OL 100 mg TID, N = 5) | Incidence of AEs: Urinary incontinence (OL 100 mg TID, N = 5) | Incidence of AEs: Agitation (OL 200 mg TID, N = 6) | Incidence of AEs: Amylase † (OL 200 mg TID, N = 6) | Incidence of AEs: Anxiety (OL 200 mg TID, N = 6) | Incidence of AEs: Blood TSH † (OL 200 mg TID, N = 6) | Incidence of AEs: Confusional state (OL 200 mg TID, N = 6) | Incidence of AEs: Crystal urine present (OL 200 mg TID, N = 6) | Incidence of AEs: Diarrhoea (OL 200 mg TID, N = 6) | Incidence of AEs: Ear infection (OL 200 mg TID, N = 6) | Incidence of AEs: GI disorders (OL 200 mg TID, N = 6) | Incidence of AEs: Generalized tonic-clonic seizure (OL 200 mg TID, N = 6) | Incidence of AEs: Infections and infestations (OL 200 mg TID, N = 6) | Incidence of AEs: International self-injury (OL 200 mg TID, N = 6) | Incidence of AEs: Investigations (OL 200 mg TID, N = 6) | Incidence of AEs: Irritability (OL 200 mg TID, N = 6) | Incidence of AEs: Nasopharyngitis (OL 200 mg TID, N = 6) | Incidence of AEs: Nervous system disorders (OL 200 mg TID, N = 6) | Incidence of AEs: Otitis externa (OL 200 mg TID, N = 6) | Incidence of AEs: Psychiatric disorders (OL 200 mg TID, N = 6) | Incidence of AEs: Renal and urinary disorders (OL 200 mg TID, N = 6) | Incidence of AEs: Syncope (OL 200 mg TID, N = 6) | Incidence of AEs: Urinary incontinence (OL 200 mg TID, N = 6)
not related: AE Relationship: cough (patient 01-011, OL 200 mg TID) | AE Relationship: pyrexia (fever) (patient 01-011, OL 200 mg TID) | AE Relationship: crystal urine present (urine cystine crystal present) (patient 01-014, DB 200 mg TID) | AE Relationship: diarrhoea (diarrhea) (patient 01-016, DB 200 mg TID) | AE Relationship: seasonal allergy (patient 01-016, OL 200 mg TID) | AE Relationship: crystal urine present (urine cystine crystal present) (patient 01-018, DB 200 mg TID) | AE Relationship: synoope (synoope) (patient 02-009, DB 100 mg TID) | AE Relationship: otitis externa (patient 02-018, DB 200 mg TID) | AE Relationship: diarrhoea (diarrhea) (patient 02-024, DB 200 mg TID) | AE Relationship: ear infection (patient 02-024, DB 200 mg TID, AE reported pre-treatment)
moderate: AE Severity: cough [1] | AE Severity: pyrexia (fever) [1] | AE Severity: diarrhoea (diarrhea) (patient 01-016, DB 200 mg TID, treatment emergent Y, resolved) | AE Severity: seasonal allergy (patient 01-016, OL 200 mg TID, treatment emergent Y, not resolved) | AE Severity: blood thyroid stimulating hormone increased (elevated TSH) (patient 02-018, DB 200 mg TID, reported at 4-week follow-up visit, resolved) | AE Severity: diarrhoea (diarrhea) [3] | AE Severity: generalized tonic-clonic seizer (grand mal seizure) (patient 02-023, DB 200 mg TID, treatment emergent Y, resolved, discontinued Y)
